The record followed here is patent publication US8053460B2, “Indole derivatives having antitumor activity” (Sigma-Tau Industrie Farmaceutiche Riunite S.p.A., priority 2005, dated 2011).

Common to all, as to type: cell-based
The subject of assay [1] is NCI-H460 non-small cell carcinoma cells. Briefly: Cytotoxicity (sulphorodamine B) on NCI-H460 tumour cells. Particulars: Homo sapiens. As for the experimental part:
(§1) To test the effects of the compounds on cell growth, NB4 human promyelocytic leukaemia, NCI-H460 non-small cell carcinoma cells and HCT-116 human colon carcinoma cells were used. NB4 and NCI-H460 tumour cells were grown RPMI 1640 containing 10% fetal bovine serum (GIBCO), whereas HCT-116 tumour cells were grown in McCoy's 5A containing 10% fetal bovine serum (GIBCO).
(§2) Tumour cells were seeded in 96-well tissue culture plates (Corning) at approximately 10% confluence and were allowed to attach and recover for at least 24 h. Varying concentrations of the drugs were then added to each well to calculate their IC50 value (the concentration which inhibits the 50% of cell survival). The plates were incubated for 24 h at 37° C. At the end of the treatment, for NB4 tumour cells in suspension, the procedure was performed as follows: medium culture was removed by centrifugation of the plates at 1600×g for 10 min and the surnatant was removed. 250 μl PBS were added, then the plates were centrifuged at 1600×g for 10 min, the surnatant was removed. 200 μl/well of medium culture RPMI 1640 containing 10% FCS were added and the plates were incubated at 37° C. for other 48 h. The plates were centrifuged again at 1600×g for 10 min, the medium culture was removed and 200 μl PBS and 50 μl of cold 80% TCA were added. The plates were incubated on ice for at least 1 h. TCA was removed, the plates were washed 3 times for immersion in distilled-water and dried on paper and at 40° C. for 5 min. Then 200 μl of 0.4% sulphorodamine B in 1% acetic acid were added. The plates were incubated at room temperature for other 30 min. Sulphorodamine B was removed, the plates were washed for immersion in 1% acetic acid for 3 times, then they were dried on paper and at 40° C. for 5 min. Then 200 μl Tris 10 mM were added, the plates were kept under stirring for 20 min. The survival cell was determined as optical density by a Multiskan spectrofluorimeter at 540 nm. For the tumour cells in adhesion (NCI-H460 and HCT-116), the procedure was as above mentioned, except that at the end of the treatment, the plates were washed by remotion of the surnatant and addition of PBS 3 times without centrifugation. Also the last day of the assay, the surnatant was removed without centrifugation.
(§3) The amount of cells killed was calculated as the percentage decrease in sulphorodamine B binding compared with control cultures. The IC50 values (the concentration which inhibits the 50% of cell survival) were calculated with the “ALLFIT” program.

Assay [2] deals with HCT-116 human colon carcinoma cells. Briefly: Cytotoxicity (sulphorodamine B) on HCT-116 tumour cells. Particulars: HCT-116 cells, 24 h treatment then 48 h recovery, read-out: HCT-116 IC50 ± SD. As for the experimental part:
as §1, §2, §3

The subject of assay [3] is NB4 human promyelocytic leukaemia cells. Briefly: Cytotoxicity (sulphorodamine B) on NB4 tumour cells. The method, then:
as §1, §2, §3

[4] abbreviates: NCI-H460 cells, 24 h treatment then 48 h recovery, sulphorodamine B, read-out: NCI-H460 IC50 ± SD.
Setting [5] is: range stated jointly for NCI-H460 non-small cell lung cancer and HCT-116 colon cancer, read-out: IC50 values on NCI-H460 and HCT-116 (range given).
The mark [6] stands for this setting: Homo sapiens, NB-4, NB4 cells, 24 h treatment then 48 h recovery, sulphorodamine B, read-out: NB4 IC50 ± SD.
Setting [7] is: Homo sapiens, range stated jointly for NB4, NCI-H460 and HCT-116, minor cytotoxicity, read-out: IC50 values on NB4 or NCI-H460 and HCT-116 (range given).
Setting [8] is: NB4 cells, 24 h treatment then 48 h recovery, sulphorodamine B, read-out: NB4 IC50 ± SD.

Where two headings read alike, the source gives them in different places.

One may read the IC50 as the midpoint of a concentration-inhibition curve. Turning to `O=C(CCCCCCC(c1c[nH]c2ccccc12)c1c[nH]c2ccccc12)NO` [ST2889, 8,8-Bis-(1H-indol-3-yl)-octanoic acid hydroxyamide], the IC50 in assay [1] (setting [4]) is 2.7 ± 0.2 µM; in assay [1] (setting [5]) it was 0.6 to 5.8 µM; in assay [2] it was 3.5 ± 0.2 µM.

With `O=C(CCCCCc1c[nH]c2ccccc12)NO` [ST2995, N-hydroxy-6-(1H-indol-3-yl)hexanamide], the IC50 was 8.8 ± 0.5 µM in assay [3] (setting [6]), 8.8 to 88.8 µM in assay [3] (setting [7]) and 22 ± 1.7 µM in assay [1] (setting [4]).

`O=C(CCC(c1c[nH]c2ccccc12)c1c[nH]c2ccccc12)NO` [ST2408, N-Hydroxy-4,4-bis-(1H-indol-3-yl)-butyramide]: the IC50 in assay [3] (setting [6]) was 14.6 ± 0.6 µM; in assay [3] (setting [7]), 8.8 to 88.8 µM; in assay [1] (setting [4]), 25.9 ± 0.3 µM.

Take `O=C(O)CCCCCC(c1c[nH]c2ccccc12)c1c[nH]c2ccccc12` [ST3127, 7,7-Bis-(1H-indol-3-yl)-heptanoic acid]: the IC50 in assay [3] (setting [6]) is > 20 µM; in assay [3] (setting [7]), 8.8 to 88.8 µM; in assay [1] (setting [4]) it was > 20 µM; in assay [2], > 20 µM.

For the compound `O=C(CCCCC(c1c[nH]c2ccccc12)c1c[nH]c2ccccc12)NO` [ST2754, 6,6-Bis-(1H-indol-3-yl)-hexanoic acid hydroxyamide], the IC50 in assay [1] (setting [4]) was 5.2 ± 0.3 µM; in assay [1] (setting [5]), 0.6 to 5.8 µM; in assay [2], 5.8 ± 0.2 µM.

Consider `O=C(C=Cc1ccc(C(c2c[nH]c3ccccc23)c2c[nH]c3ccccc23)cc1)NO` [ST2887, 3-{4-[Bis-(1H-indol-3-yl)-methyl]-phenyl}-N-hydroxy-acrylamide], for which the IC50 in assay [3] (setting [6]) was 0.4 to 2.3 µM; in assay [3] (setting [8]), 0.6 ± 0.01 µM; in assay [1] (setting [4]), 2.6 ± 0.3 µM; in assay [1] (setting [5]) it was 0.6 to 5.8 µM; in assay [2], 3.9 ± 0.5 µM.

As to `O=C(CCCCCC(c1c[nH]c2cccc(F)c12)c1c[nH]c2cccc(F)c12)NO` [ST3052, 7,7-Bis-(4-fluoro-1H-indol-3-yl)-heptanoic acid hydroxyamide], the IC50 is 0.4 to 2.3 µM in assay [3] (setting [6]); 0.6 ± 0.09 µM in assay [3] (setting [8]); 0.7 ± 0.09 µM in assay [1] (setting [4]); 0.27 to 0.7 µM in assay [1] (setting [5]); 0.4 ± 0.1 µM in assay [2].

With `Cc1ccc2[nH]cc(C(CCCCCC(=O)NO)c3c[nH]c4ccc(C)cc34)c2c1` [ST3044, 7,7-Bis-(5-methyl-1H-indol-3-yl)-heptanoic acid hydroxyamide], the IC50 in assay [3] (setting [6]) is 0.15 µM; in assay [1] (setting [4]), 0.51 ± 0.1 µM; in assay [1] (setting [5]), 0.27 to 0.7 µM; in assay [2], 0.27 ± 0.01 µM.

`O=C(CCCCCC(C1C=Nc2ccc(CN3CCOCC3)cc21)C1C=Nc2ccc(CN3CCOCC3)cc21)NO` (centres unmarked) [ST3307, 7,7-Bis-(5-morpholin-4-ylmethyl-3H-indol-3-yl)-heptanoic acid hydroxyamide]: the IC50 is 0.4 to 2.3 µM in assay [3] (setting [6]), 0.42 ± 0.02 µM in assay [3] (setting [8]), 1.1 ± 0.1 µM in assay [1] (setting [4]) and 0.6 to 5.8 µM in assay [1] (setting [5]).

For `O=C(CCCCCC(c1c[nH]c2ccccc12)c1c[nH]c2ccccc12)NO` [ST2741, 7,7-Bis-(1H-indol-3-yl)-heptanoic acid hydroxyamide], the IC50 in assay [3] (setting [6]) was 0.4 to 2.3 µM; in assay [3] (setting [8]), 0.6 ± 0.01 µM; in assay [1] (setting [4]), 1.2 ± 0.1 µM; in assay [1] (setting [5]), 0.6 to 5.8 µM; in assay [2], 0.6 ± 0.02 µM.

Consider `COc1cccc2c(C(CCCCCC(=O)NO)c3c[nH]c4c(OC)cccc34)c[nH]c12` [ST3043, 7,7-Bis-(7-methoxy-1H-indol-3-yl)-heptanoic acid hydroxyamide], for which the IC50 was 0.4 to 2.3 µM in assay [3] (setting [6]); 0.8 ± 0.01 µM in assay [3] (setting [8]); 0.55 ± 0.03 µM in assay [1] (setting [4]); 0.27 to 0.7 µM in assay [1] (setting [5]); 0.41 ± 0.03 µM in assay [2].

For the compound `O=C(CCCC(c1c[nH]c2ccccc12)c1c[nH]c2ccccc12)NO` [ST2743, 5,5-Bis-(1H-indol-3-yl)-pentanoic acid hydroxyamide], the IC50 is 8.8 to 88.8 µM in assay [3] (setting [7]) and 88.8 ± 2.8 µM in assay [1] (setting [4]).

Turning to `O=C(CCCCCC(c1cc2ccccc2[nH]1)c1c[nH]c2ccccc12)NO` (centres unmarked) [ST3292, 7-(1H-Indol-3-yl)-7-(1H-indol-2-yl)-heptanoic acid hydroxyamide], the IC50 is 0.4 to 2.3 µM in assay [3] (setting [6]), 0.67 ± 0.01 µM in assay [3] (setting [8]), 0.82 ± 0.07 µM in assay [1] (setting [4]) and 0.6 to 5.8 µM in assay [1] (setting [5]).
